Usually IC50 stands for the midpoint of a concentration-inhibition curve.

Structures are written as SMILES.

Sequence of IDH1 R132H enzyme (O75874 whole entry R132H): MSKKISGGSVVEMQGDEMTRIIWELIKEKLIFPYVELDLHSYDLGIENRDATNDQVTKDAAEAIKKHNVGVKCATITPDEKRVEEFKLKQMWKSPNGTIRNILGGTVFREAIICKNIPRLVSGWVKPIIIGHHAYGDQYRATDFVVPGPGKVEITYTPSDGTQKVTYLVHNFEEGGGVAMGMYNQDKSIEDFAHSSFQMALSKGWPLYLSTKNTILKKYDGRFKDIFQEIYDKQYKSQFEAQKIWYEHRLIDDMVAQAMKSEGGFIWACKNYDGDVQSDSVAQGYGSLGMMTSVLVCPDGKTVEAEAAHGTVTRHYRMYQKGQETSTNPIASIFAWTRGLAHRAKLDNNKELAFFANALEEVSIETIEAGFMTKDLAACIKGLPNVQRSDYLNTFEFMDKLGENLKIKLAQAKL

In this assay the target is IDH1 R132H enzyme (Homo sapiens (Human), UniProt O75874, R132H). The assay can be described thus: Mutant IDH1 R132H biochemical assay. The note with it: NADPH consumption, luminescent readout; 1.5 nM enzyme, 1 μM NADPH, 250 μM α-KG, 30 minutes, 32° C. Here is the method:
NADPH consumption was measured by luminescent readout. […] The final DMSO concentration was 2.4%. […] Luminescence was measured on a luminescent reader (10 seconds measuring time, 1 second integration period, 30% sensitivity). The decrease in luminescence is proportional to mIDH1 activity. IC50 values are determined by interpolation from plots of relative luminescence versus inhibitor concentration.
Consider `COC(=O)c1ccc2c(c1)nc(-c1ccc(OC(F)(F)F)cc1)n2[C@H]1C[C@@H](C)CC(C)(C)C1` (racemic) [Example 2-1, (±) methyl 2-[4-(trifluoromethoxy)phenyl]-1-[(cis)-3,3,5-trimethylcyclohexyl]-1H-benzimidazole-5-carboxylate], for which the IC50 is 9900 nM.
Compound `COC(=O)c1ccc2c(c1)nc(Cc1ccc(OC(F)(F)F)cc1)n2[C@H]1C[C@@H](C)CC(C)(C)C1` (racemic) [Example 2-3, (±) methyl 2-[4-(trifluoromethoxy)benzyl]-1-[(cis)-3,3,5-trimethylcyclohexyl]-1H-benzimidazole-5-carboxylate] came in with an IC50 of 670 nM.
As to `COC(=O)c1ccc2c(c1)nc(Cc1ccc(OC(C)C)cc1)n2[C@H]1C[C@@H](C)CC(C)(C)C1` (racemic) [Example 2-6, (±) methyl 2-[4-(propan-2-yloxy)benzyl]-1-[(cis)-3,3,5-trimethylcyclohexyl]-1H-benzimidazole-5-carboxylate], the IC50 amounted to 1500 nM.
With `COC(=O)c1ccc2c(c1)nc(Cc1ccc(C(F)(F)F)cc1)n2[C@H]1C[C@@H](C)CC(C)(C)C1` (racemic) [Example 2-8, (±) methyl 2-[4-(trifluoromethyl)benzyl]-1-[(cis)-3,3,5-trimethylcyclohexyl]-1H-benzimidazole-5-carboxylate], the IC50 was 1500 nM.
Regarding `COC(=O)c1ccc2c(c1)nc(Cc1ccc(F)cc1)n2[C@H]1C[C@@H](C)CC(C)(C)C1` (racemic) [Example 2-9, (±) methyl 2-(4-fluorobenzyl)-1-[(cis)-3,3,5-trimethylcyclohexyl]-1H-benzimidazole-5-carboxylate], the IC50 was 4200 nM.
Compound `COC(=O)c1ccc2c(c1)nc(Cc1ccc(C)cc1)n2[C@H]1C[C@@H](C)CC(C)(C)C1` (racemic) [Example 2-10, (±) methyl 2-(4-methylbenzyl)-1-[(cis)-3,3,5-trimethylcyclohexyl]-1H-benzimidazole-5-carboxylate] gave an IC50 of 1500 nM.
In turn, `COC(=O)c1ccc2c(c1)nc(Cc1ccc(C(C)(C)C)cc1)n2[C@H]1C[C@@H](C)CC(C)(C)C1` (racemic) [Example 2-11, (±) methyl 2-(4-tert-butylbenzyl)-1-[(cis)-3,3,5-trimethylcyclohexyl]-1H-benzimidazole-5-carboxylate] returned an IC50 of 1400 nM.
The compound `COC(=O)c1ccc2c(c1)nc(Cc1ccccc1OC(F)(F)F)n2[C@@H]1C[C@H](C)CC(C)(C)C1` (racemic) [Example 2-13, (± methyl 2-[2-(trifluoromethoxy)benzyl]-1-[(cis)-3,3,5-trimethylcyclohexyl]-1H-benzimidazole-5-carboxylate] came in with an IC50 of 10000 nM. Compared with the last compound, the IC50 is about 7.1-fold higher.
The result for `COC(=O)c1ccc2c(c1)nc(Cc1cccc(OC(F)(F)F)c1)n2[C@H]1C[C@@H](C)CC(C)(C)C1` (racemic) [Example 2-14, (±) methyl 2-[3-(trifluoromethoxy)benzyl]-1-[(cis)-3,3,5-trimethylcyclohexyl]-1H-benzimidazole-5-carboxylate] reads 10000 nM; that for `COC(=O)c1cc2nc(Cc3ccc(OC(F)(F)F)cc3)n([C@H]3C[C@@H](C)CC(C)(C)C3)c2cc1OC(C)C` (racemic) [Example 2-20, (±) methyl 6-(propan-2-yloxy)-2[4-(trifluoromethoxy)benzyl]-1-[(cis)-3,3,5-trimethylcyclohexyl]-1H-benzimidazole-5-carboxylate], 2800 nM; that for `CC(C)Oc1ccc(Cc2nc3cc(C#N)ccc3n2[C@H]2C[C@@H](C)CC(C)(C)C2)cc1` (racemic) [Example 2-24, (±) 2-[4-(propan-2-yloxy)benzyl]-1-[(cis)-3,3,5-trimethylcyclohexyl]-1H-benzimidazole-5-carbonitrile], 1500 nM.
In the case of `CC(C)c1ccc(Cc2nc3cc(C#N)ccc3n2[C@H]2C[C@@H](C)CC(C)(C)C2)cc1` (racemic) [Example 2-25, (±) 2-[4-(propan-2-yl)benzyl]-1-[(cis)-3,3,5-trimethylcyclohexyl]-1H-benzimidazole-5-carbonitrile], inhibition was half-maximal at 350 nM (IC50). Against the preceding compound, the IC50 is about 4.3-fold lower.
As for `C[C@@H]1C[C@H](n2c(Cc3ccc(C(F)(F)F)cc3)nc3cc(C#N)ccc32)CC(C)(C)C1` (racemic) [Example 2-26, (±) 2-[4-(trifluoromethyl)benzyl]-1-[(cis)-3,3,5-trimethylcyclohexyl]-1H-benzimidazole-5-carbonitrile], inhibition was half-maximal at 700 nM (IC50).
With `COC(=O)c1ccc2c(c1)nc(C(C)(C)c1ccc(OC(F)(F)F)cc1)n2[C@H]1C[C@@H](C)CC(C)(C)C1` (racemic) [Reference compound 2-5, (±) methyl 2-{2-[4-(trifluoromethoxy)phenyl]propan-2-yl}-1-[(cis)-3,3,5-trimethylcyclohexyl]-1H-benzimidazole-5-carboxylate, reference compound] the figure was greater than 10000 nM; with `COC(=O)c1ccc2c(c1)nc(C(C)c1ccc(OC(F)(F)F)cc1)n2[C@H]1C[C@@H](C)CC(C)(C)C1` (relative stereo) [Reference compound 2-4, methyl 2-{1-[4-(trifluoromethoxy)phenyl]ethyl}-1-[(cis)-3,3,5-trimethylcyclohexyl]-1H-benzimidazole-5-carboxylate, reference compound], greater than 10000 nM.
Consider `COC(=O)c1ccc2c(c1)nc(-c1ccc(OC(F)(F)F)cc1)n2[C@H]1C[C@@H](C)CC(C)(C)C1` (single isomer, unassigned) [Example 2-1-1, methyl 2-[4-(trifluoromethoxy)phenyl]-1-[(cis)-3,3,5-trimethylcyclohexyl]-1H-benzimidazole-5-carboxylate], for which the midpoint of inhibition, the IC50, lay at 1000 nM.
On to `COC(=O)c1ccc2c(c1)nc(-c1ccc(OC(F)(F)F)cc1)n2[C@H]1C[C@@H](C)CC(C)(C)C1` (single isomer, unassigned) [Example 2-1-2, methyl 2-[4-(trifluoromethoxy)phenyl]-1-[(cis)-3,3,5-trimethylcyclohexyl]-1H-benzimidazole-5-carboxylate], for which the IC50 turned out to be 5700 nM.
Take `COC(=O)c1ccc2c(c1)nc(Cc1ccc(OC(F)(F)F)cc1)n2[C@H]1C[C@@H](C)CC(C)(C)C1` (single isomer, unassigned) [Example 2-3-1, methyl 2-[4-(trifluoromethoxy)benzyl]-1-[(cis)-3,3,5-trimethylcyclohexyl]-1H-benzimidazole-5-carboxylate]: the midpoint of inhibition, the IC50, lay at 1700 nM.
As for `COC(=O)c1ccc2c(c1)nc(Cc1ccc(OC(F)(F)F)cc1)n2[C@H]1C[C@@H](C)CC(C)(C)C1` (single isomer, unassigned) [Example 2-3-2, methyl 2-[4-(trifluoromethoxy)benzyl]-1-[(cis)-3,3,5-trimethylcyclohexyl]-1H-benzimidazole-5-carboxylate], inhibition was half-maximal at 610 nM (IC50).
`COC(=O)c1cc2nc(Cc3ccc(OC(F)(F)F)cc3)n([C@H]3C[C@@H](C)CC(C)(C)C3)c2cc1C` (single isomer, unassigned) [Example 2-18-2, methyl 6-methyl-2[4-(trifluoromethoxy)benzyl]-1-[(cis)-3,3,5-trimethylcyclohexyl]-1H-benzimidazole-5-carboxylate] registered an IC50 of 1200 nM.
`COC(=O)c1cc2nc(Cc3ccc(OC(F)(F)F)cc3)n([C@H]3C[C@@H](C)CC(C)(C)C3)c2cc1OC(C)C` (single isomer, unassigned) [Example 2-20-1, methyl 6-(propan-2-yloxy)-2-[4-(trifluoromethoxy)benzyl]-1-[(cis)-3,3,5-trimethylcyclohexyl]-1H-benzimidazole-5-carboxylate] yielded an IC50 of 1300 nM.
Consider `COC(=O)c1cc2nc(Cc3ccc(OC(F)(F)F)cc3)n([C@H]3C[C@@H](C)CC(C)(C)C3)c2cc1OC(C)C` (single isomer, unassigned) [Example 2-20-2, methyl 6-(propan-2-yloxy)-2-[4-(trifluoromethoxy)benzyl]-1-[(cis)-3,3,5-trimethylcyclohexyl]-1H-benzimidazole-5-carboxylate], for which the IC50 turned out to be 3300 nM.
For the compound `COC(=O)c1ccc2c(c1)nc(C(C)c1ccc(OC(F)(F)F)cc1)n2[C@H]1C[C@@H](C)CC(C)(C)C1` (single isomer, unassigned) [Reference compound 2-4-1, methyl 2-{1-[4-(trifluoromethoxy)phenyl]ethyl}-1-[(cis)-3,3,5-trimethylcyclohexyl]-1H-benzimidazole-5-carboxylate, reference compound], the IC50 was greater than 10000 nM.
`COC(=O)c1ccc2c(c1)nc(C(C)c1ccc(OC(F)(F)F)cc1)n2[C@H]1C[C@@H](C)CC(C)(C)C1` (single isomer, unassigned) [Reference compound 2-4-2, methyl 2-{1-[4-(trifluoromethoxy)phenyl]ethyl}-1-[(cis)-3,3,5-trimethylcyclohexyl]-1H-benzimidazole-5-carboxylate, reference compound]: the IC50 was greater than 10000 nM.
Regarding `COC(=O)c1ccc2c(c1)nc(C(C)c1ccc(OC(F)(F)F)cc1)n2[C@H]1C[C@@H](C)CC(C)(C)C1` (single isomer, unassigned) [Reference compound 2-4-3, methyl 2-{1-[4-(trifluoromethoxy)phenyl]ethyl}-1-[(cis)-3,3,5-trimethylcyclohexyl]-1H-benzimidazole-5-carboxylate, reference compound], the IC50 came out at 5000 nM.
As for `C[C@H]1C[C@@H](n2c(C(C)(C)c3ccc(OC(F)(F)F)cc3)nc3cc(C(=O)O)ccc32)CC(C)(C)C1` (stereo in doubt) [Example 2-31], half-maximal inhibition (IC50) required 3800 nM.
Compound `CC(C)Oc1ccc(Cc2nc3cc(C(=O)O)ccc3n2[C@@H]2C[C@H](C)CC(C)(C)C2)cc1` (stereo in doubt) [Example 2-32-1] yielded an IC50 of 450 nM. This IC50 is about 8.4-fold lower than that of the compound before.
The result for `C[C@H]1C[C@@H](n2c(Cc3ccc(F)cc3)nc3cc(C(=O)O)ccc32)CC(C)(C)C1` (stereo in doubt) [Example 2-35] reads 1300 nM; that for `Cc1ccc(Cc2nc3cc(C(=O)O)ccc3n2[C@@H]2C[C@H](C)CC(C)(C)C2)cc1` (stereo in doubt) [Example 2-36], 580 nM.

(Values after patent US10179123B2, “2-aryl- and 2-arylalkyl-benzimidazoles as mIDH1 inhibitors” (BAYER PHARMA AKTIENGESELLSCHAFT, priority 2015, dated 2019).)
